Source: ChEMBL document CHEMBL4376853, “Synthesis and structure-activity relationship studies of α-naphthoflavone derivatives as CYP1B1 inhibitors” (Eur J Med Chem, 2020)

Legend:
[1] = species: Homo sapiens; assay: Selectivity index, ratio of IC50 for human recombinant CYP1A2 to IC50 for human recombinant CYP1B1 using 7-ethoxyresorufin as substrate in presence of glucose-6-phosphate, glucose-6-phosphate dehydrogenase and NADPH-generating system by fluorometry
[2] = biological target: T1, Cytochrome P450 1B1 (Homo sapiens, UniProt Q16678); assay: Inhibition of human recombinant CYP1B1 using 7-ethoxyresorufin as substrate in presence of glucose-6-phosphate, glucose-6-phosphate dehydrogenase and NADPH-generating system incubated for 35 mins by fluorometry
T1 sequence (Q16678 whole entry): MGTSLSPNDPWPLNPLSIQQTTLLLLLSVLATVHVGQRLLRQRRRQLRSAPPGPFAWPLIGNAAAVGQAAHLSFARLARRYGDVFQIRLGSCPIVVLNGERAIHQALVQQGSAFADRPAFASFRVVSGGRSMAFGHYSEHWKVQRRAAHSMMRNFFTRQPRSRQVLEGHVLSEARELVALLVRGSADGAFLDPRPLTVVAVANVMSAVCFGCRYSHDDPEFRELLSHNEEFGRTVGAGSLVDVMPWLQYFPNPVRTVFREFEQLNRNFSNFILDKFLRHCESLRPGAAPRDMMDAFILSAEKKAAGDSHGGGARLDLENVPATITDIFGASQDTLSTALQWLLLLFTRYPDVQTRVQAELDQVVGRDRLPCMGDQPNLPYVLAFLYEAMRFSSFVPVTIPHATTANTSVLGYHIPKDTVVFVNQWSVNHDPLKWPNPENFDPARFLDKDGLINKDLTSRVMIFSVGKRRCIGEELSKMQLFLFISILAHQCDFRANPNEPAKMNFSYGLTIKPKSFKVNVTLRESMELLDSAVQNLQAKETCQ

[3] = species: Homo sapiens; assay: Selectivity index, ratio of IC50 for human recombinant CYP1A1 to IC50 for human recombinant CYP1B1 using 7-ethoxyresorufin as substrate in presence of glucose-6-phosphate, glucose-6-phosphate dehydrogenase and NADPH-generating system by fluorometry
[4] = biological target: T2, Cytochrome P450 1A2 (Homo sapiens, UniProt P05177); assay: Inhibition of human recombinant CYP1A2 using 7-ethoxyresorufin as substrate in presence of glucose-6-phosphate, glucose-6-phosphate dehydrogenase and NADPH-generating system incubated for 50 mins by fluorometry; type: ADME
T2 sequence (P05177 whole entry): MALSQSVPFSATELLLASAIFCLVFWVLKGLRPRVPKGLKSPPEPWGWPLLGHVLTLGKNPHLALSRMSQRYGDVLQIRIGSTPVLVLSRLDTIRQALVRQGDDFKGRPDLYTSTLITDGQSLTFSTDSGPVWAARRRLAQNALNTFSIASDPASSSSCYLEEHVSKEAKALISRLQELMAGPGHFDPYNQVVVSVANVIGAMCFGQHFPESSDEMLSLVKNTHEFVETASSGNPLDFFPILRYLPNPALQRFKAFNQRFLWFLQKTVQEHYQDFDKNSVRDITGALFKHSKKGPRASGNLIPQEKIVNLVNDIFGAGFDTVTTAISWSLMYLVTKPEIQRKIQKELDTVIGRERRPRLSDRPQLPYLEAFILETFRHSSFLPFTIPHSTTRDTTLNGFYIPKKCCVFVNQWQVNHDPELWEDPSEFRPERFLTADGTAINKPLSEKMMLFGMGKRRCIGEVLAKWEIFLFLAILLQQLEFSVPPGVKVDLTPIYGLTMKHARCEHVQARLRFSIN

[5] = biological target: T3, Cytochrome P450 1A1 (Homo sapiens, UniProt P04798); assay: Inhibition of human recombinant CYP1A1 using 7-ethoxyresorufin as substrate in presence of glucose-6-phosphate, glucose-6-phosphate dehydrogenase and NADPH-generating system incubated for 15 mins by fluorometry; type: ADME
T3 sequence (P04798 whole entry): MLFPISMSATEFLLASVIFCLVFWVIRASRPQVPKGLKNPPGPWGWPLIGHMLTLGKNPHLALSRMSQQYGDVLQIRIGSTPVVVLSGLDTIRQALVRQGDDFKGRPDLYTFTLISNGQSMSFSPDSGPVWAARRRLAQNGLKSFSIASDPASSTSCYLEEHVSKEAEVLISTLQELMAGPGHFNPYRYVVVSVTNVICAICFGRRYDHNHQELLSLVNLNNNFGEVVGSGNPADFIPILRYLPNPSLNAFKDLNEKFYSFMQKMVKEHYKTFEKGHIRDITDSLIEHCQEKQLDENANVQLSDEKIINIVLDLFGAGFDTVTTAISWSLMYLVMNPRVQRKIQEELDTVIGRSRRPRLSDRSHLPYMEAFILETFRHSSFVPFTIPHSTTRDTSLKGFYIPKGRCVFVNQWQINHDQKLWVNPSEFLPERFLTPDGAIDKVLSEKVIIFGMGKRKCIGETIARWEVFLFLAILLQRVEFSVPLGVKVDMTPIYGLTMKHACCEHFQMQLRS

[6] = biological target: T1, Cytochrome P450 1B1; assay: Potency index, ratio of IC50 for ANF to IC50 for test compound for inhibition of human recombinant CYP1B1 using 7-ethoxyresorufin as substrate in presence of glucose-6-phosphate, glucose-6-phosphate dehydrogenase and NADPH-generating system incubated for 35 mins by fluorometry; settings: read-out: Ratio IC50

Row | SMILES | Ratio IC50 [1] | IC50 [2] | Ratio IC50 [3] | IC50 [4] | IC50 [5] | selectivity ratio at 35 min [6]
1 | O=c1cc(-c2ccc(F)cc2)oc2c1ccc1ccccc12 | 4.5 | 2.7 nM | 2.5 | 12.1 nM | 6.7 nM | –
2 | Fc1ccc(-c2cc(=S)c3ccc4ccccc4c3o2)cc1 | 3.2 | 13.3 nM | 0.9 | 42.8 nM | 12.3 nM | –
3 | CN1CCN(c2cc(Cl)cc(-c3cc(=O)c4ccc5ccccc5c4o3)c2)CC1 | – | 47.7 nM | 0.8 | > 1000 nM | 37.9 nM | 0.12
4 | S=c1cc(-c2ccccc2)oc2c1ccc1ccccc12 | 22.9 | 7.8 nM | 8.4 | 179 nM | 65.4 nM | –
5 | O=c1cc(-c2cc(Cl)cc(Cl)c2)oc2c1ccc1ccccc12 | 37.4 | 4.2 nM | 6.1 | 157 nM | 25.5 nM | –
6 | O=c1cc(-c2cccc(O)c2)oc2c1ccc1ccccc12 | 6.2 | 14.8 nM | 3.6 | 91.5 nM | 53.1 nM | –
7 | Fc1ccccc1-c1cc(=S)c2ccc3ccccc3c2o1 | 4.9 | 10.6 nM | 3 | 51.8 nM | 31.9 nM | –
8 | O=c1cc(-c2cccc(F)c2)oc2c1ccc1ccccc12 | 28.3 | 2.2 nM | 7.6 | 62.2 nM | 16.7 nM | –
9 | CN(C)c1cccc(-c2cc(=O)c3ccc4ccccc4c3o2)c1 | 44.7 | 4.1 nM | 2.3 | 183 nM | 9.6 nM | –
10 | O=c1cc(-c2ccccc2Cl)sc2c1ccc1ccccc12 | > 11.1 | 89.7 nM | 0.5 | > 1000 nM | 45.8 nM | –
11 | CN1CCN(c2cccc(-c3cc(=O)c4ccc5ccccc5c4o3)c2)CC1 | 31 | 24.6 nM | 1.4 | 762 nM | 34.6 nM | –
12 | O=c1cc(-c2ccccc2)sc2c1ccc1ccccc12 | > 17.5 | 57 nM | 0.6 | > 1000 nM | 32.6 nM | –
13 | COc1ccc(-c2cc(=O)c3ccc4ccccc4c3o2)cc1 | 13.5 | 7.3 nM | 4.2 | 98.2 nM | 30.9 nM | –
14 | O/N=c1\cc(-c2ccc(Cl)cc2)oc2c1ccc1ccccc12 | 9.4 | 8 nM | 5.6 | 75.2 nM | 44.4 nM | –
15 | O=c1cc(-c2ccncc2)oc2c1ccc1ccccc12 | 3.9 | 9.3 nM | 2 | 36.4 nM | 18.7 nM | –
16 | O=c1cc(-c2ccccn2)oc2c1ccc1ccccc12 | 7.2 | 3.5 nM | 10.8 | 25.1 nM | 37.9 nM | –
17 | O=c1cc(-c2ccccc2F)sc2c1ccc1ccccc12 | 5.6 | 104 nM | 0.8 | 582 nM | 84.6 nM | –
18 | O=c1cc(-c2ccccc2F)oc2c1ccc1ccccc12 | 7.2 | 3.3 nM | 3.7 | 23.7 nM | 12.2 nM | –
19 | O=c1cc(-c2cccnc2)oc2c1ccc1ccccc12 | 3.7 | 6.2 nM | 4.1 | 23.2 nM | 25.3 nM | –
